A short description of the data set: Concentration of lactic acid fermentation culture medium with reverse osmosis membrane at 50° C. until calcium lactate precipitates. The settings on record: no calcium formate added.

Description: While the recovered concentrate was incubated at 50° C., the concentrate was filtered by suction filtration through Qualitative Filter Paper No. 2 (manufactured by [sequence]) to remove the precipitated calcium lactate crystals.

As to `CC(O)C(=O)[O-].CC(O)C(=O)[O-].[Ca+2]` (stereo not drawn) [calcium lactate], the “concentration of calcium lactate at which precipitation was found” value is, setting by setting: (D-lactic acid fermentation medium (SL strain)) 12.5 % by weight; (L-lactic acid fermentation medium (LC strain)) 12.8 % by weight; (L-lactic acid fermentation medium (yeast HI003 strain)) 12.0 % by weight.

These data come from patent US20140012041A1, “METHOD FOR PRODUCING LACTATE” (TORAY INDUSTRIES, INC., priority 2010, published 2014).
